Here are results for three compounds from patent publication US20240391965A1, “STAPLED ANTIMICROBIAL PEPTIDES (STAMPS) AND USES THEREOF” (Lytica Therapeutics, Inc., priority 2021, published 2024).

For data set [1], the system named is Acinetobacter baumannii (A. baumannii). Format: cell-based. Conditions: microbroth dilution, 20-24 hours at 37° C. Here is the method:
(§1) Antimicrobial Activity Assay: The following microbroth dilution protocol was adapted from CLSI to determine the minimum inhibitory concentration (MIC) of StAMPs. Briefly, Mueller-Hinton broth (MHB) or cation-adjusted Mueller-Hinton broth (MHB II) was prepared and autoclaved. Then, a colony of bacterial cells was picked and grown overnight in broth at 37° C. and then diluted and allowed to grow again for 3-4 hours. Serial dilutions of peptide stocks in water (10 μl) were prepared using clear round-bottom polypropylene 96-well plates. Then 90 μl of bacteria in broth was added to give a final inoculum of 5×10^5 CFU/ml. The plates were then covered with porous tape to reduce evaporation and incubated for 20-24 hours at 37° C. The MIC was the minimum peptide concentration at which no visible bacterial growth was observed.

The test system of data set [2] is Escherichia coli (E. coli). Format: cell-based. The following applies: microbroth dilution, 20-24 hours at 37° C. Here is the method:
as §1
In general terms: In broth dilution the organism is exposed to a series of concentrations in liquid medium.

For data set [3], the system named is Klebsiella pneumoniae (K. pneumoniae). Format: cell-based. Conditions: microbroth dilution, 20-24 hours at 37° C. Here is the method: as §1
The subject of data set [4] is Pseudomonas aeruginosa (P. aeruginosa). Format: cell-based. The following applies: microbroth dilution, 20-24 hours at 37° C. The method, then:
as §1

Data set [5] has as its system Staphylococcus aureus (S. aureus). The class given is cell-based. Conditions: microbroth dilution, 20-24 hours at 37° C. The method, then:
as §1

Data set [6] in a line: 48 hours cytotoxicity assay (CellTiter-Glo), liver toxicity. The class given is cell-based, human. Conditions: 48 hours of incubation, CellTiter-Glo; read-out: Inhibitory Concentration at 50% Cytotoxicity (IC50) Human Liver Cells (HepG2). In short, it runs like this:
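Viability from CellTiter-Glo luminescence after StAMP dilution series or vehicle acted on HepG2 cells for 48 h at 37 °C. Cells were grown in EMEM plus 10% FBS and given 4 h to attach before dosing.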

Converted amounts (≈) assume the structure as drawn. Starred links: 1 amine or outer side, 2 acyl side, 3 side chain; linkers in the order of their positions; H or OH if unused. Positions of bridges follow the written chain, without caps; N, C: chain ends. Residues, ends and D or L forms follow the SMILES beside them. 2,2'Bipyridine(5,5'-diCH2) = c1cc(-c2ccc(C[*:2])cn2)ncc1C[*:1]; Naphthalene(2,6-diCH2) = c1cc2cc(C[*:2])ccc2cc1C[*:1]

On to `CC[C@H](C)[C@H](NC(=O)CN)C(=O)N[C@@H](Cc1ccccc1)C(=O)N[C@@H](CO)C(=O)N[C@@H](CCCCN)C(=O)N[C@@H](CC(C)C)C(=O)N[C@@H](C)C(=O)NCC(=O)N[C@@H](CCCCN)C(=O)N[C@@H](CCCCN)C(=O)N[C@H](C(=O)N[C@H]1CSCc2ccc3cc(ccc3c2)CSC[C@@H](C(=O)N[C@@H](CCCCN)C(=O)NCC(N)=O)NC(=O)CNC(=O)[C@H](CO)NC(=O)[C@H]([C@@H](C)CC)NC(=O)[C@H](CC(C)C)NC(=O)[C@H](CC(C)C)NC(=O)[C@H](CC(N)=O)NC1=O)[C@@H](C)CC` [compound 78] (H-GIFSKLAGKKICNLLISGCKG-NH2; linker 12-19 via Naphthalene(2,6-diCH2); N-terminus assumed), for which, in data set [1], the “Minimum Inhibitory Concentration (MIC) A. baumannii” value is 16 mg/L. In addition, the “Minimum Inhibitory Concentration (MIC) E. coli” value in data set [2] came out at 16 mg/L. The “Minimum Inhibitory Concentration (MIC) K. pneumoniae” value in data set [3] was 64 mg/L. In addition, the “Minimum Inhibitory Concentration (MIC) P. aeruginosa” value in data set [4] worked out at 64 mg/L. The “Minimum Inhibitory Concentration (MIC) S. aureus” value in data set [5] is >64 mg/L. Also, the IC50 in data set [6] worked out at 108 mg/L (≈ 46.9 µM).

As to `CC[C@H](C)[C@H](NC(=O)CN)C(=O)N[C@@H](Cc1ccccc1)C(=O)N[C@@H](CO)C(=O)N[C@@H](CCCCN)C(=O)N[C@@H](CC(C)C)C(=O)N[C@@H](C)C(=O)NCC(=O)N[C@@H](CCCCN)C(=O)N[C@@H](CCCCN)C(=O)N[C@H](C(=O)N[C@@H](CCCCN)C(=O)N[C@@H](CC(N)=O)C(=O)N[C@H]1CSCc2ccc3cc(ccc3c2)CSC[C@@H](C(N)=O)NC(=O)[C@H](CCCCN)NC(=O)[C@H](CC(C)C)NC(=O)CNC(=O)[C@H](CO)NC(=O)[C@H]([C@@H](C)CC)NC(=O)[C@H](CC(C)C)NC1=O)[C@@H](C)CC` [compound 85] (H-GIFSKLAGKKIKNCLISGLKC-NH2; linker 14-21 via Naphthalene(2,6-diCH2); N-terminus assumed), the “Minimum Inhibitory Concentration (MIC) A. baumannii” value in data set [1] amounted to 4 mg/L. The “Minimum Inhibitory Concentration (MIC) E. coli” value in data set [2] came out at 4 mg/L. Further, in data set [3], the “Minimum Inhibitory Concentration (MIC) K. pneumoniae” value came to 32 mg/L. Besides, the “Minimum Inhibitory Concentration (MIC) P. aeruginosa” value in data set [4] came to 16 mg/L. For the same compound, the “Minimum Inhibitory Concentration (MIC) S. aureus” value in data set [5] turned out to be 64 mg/L. For the same compound, in data set [6], the IC50 turned out to be 87 mg/L (≈ 36.7 µM).

With `CC[C@H](C)[C@H](NC(=O)CN)C(=O)N[C@@H](Cc1ccccc1)C(=O)N[C@@H](CO)C(=O)N[C@@H](CCCCN)C(=O)N[C@@H](CC(C)C)C(=O)N[C@@H](C)C(=O)NCC(=O)N[C@@H](CCCCN)C(=O)N[C@@H](CCCCN)C(=O)N[C@H](C(=O)N[C@@H](CCCCN)C(=O)N[C@H]1CSCc2ccc(nc2)-c2ccc(cn2)CSC[C@@H](C(=O)NCC(N)=O)NC(=O)[C@H](CC(C)C)NC(=O)CNC(=O)[C@H](CO)NC(=O)[C@H]([C@@H](C)CC)NC(=O)[C@H](CC(C)C)NC(=O)[C@H](CC(C)C)NC1=O)[C@@H](C)CC` [compound 81] (H-GIFSKLAGKKIKCLLISGLCG-NH2; linker 13-20 via 2,2'Bipyridine(5,5'-diCH2); N-terminus assumed), the “Minimum Inhibitory Concentration (MIC) A. baumannii” value in data set [1] was found to be 4 mg/L. The “Minimum Inhibitory Concentration (MIC) E. coli” value in data set [2] came out at 4 mg/L. Further, the “Minimum Inhibitory Concentration (MIC) K. pneumoniae” value in data set [3] turned out to be 8 mg/L. Also, the “Minimum Inhibitory Concentration (MIC) P. aeruginosa” value in data set [4] was 32 mg/L. Also, the “Minimum Inhibitory Concentration (MIC) S. aureus” value in data set [5] was >64 mg/L. In data set [6], the IC50 came to 57 mg/L (≈ 24.5 µM).
